Experimental data from patent publication US20180057565A1, “STABILIZED POLYPEPTIDE INSULIN RECEPTOR MODULATORS” (President and Fellows of Harvard College, priority 2012, published 2018).
Bridge positions count the residues as written; N and C are the ends. Square brackets hold non-standard residues; d marks the D form. Peptide text beside a SMILES is read from it. R8 = C=CCCCCCC[C@@](C)(N)C(=O)O; S5 = C=CCCC[C@](C)(N)C(=O)O

Key:
[1] = system: phosphor-Akt S473; test: Dose-response ELISA of phospho-Akt S473 in CHO-IR cell lysates; assay type: cell-based; conditions: 50 nM insulin
Description: FIG. 6 depicts the dose-response of antagonist SIRB-B5. CHO-IR cells were treated with 50 nM insulin and increasing concentrations of SIRB-B5. ELISA assays of phosphor-IR Y1150/1151 and phosphor-Akt S473 were performed with cell lysates.
For further verification of biological activity, the SIRB peptide library was screened again using IR auto-phosphorylation as an indicator. […] A possible explanation for the differential plateau values is that phosphorylation of Akt1 is controlled by many other pathways as well and thus difficult to abolish completely.

[2] = target: T1, IGF-1R (Homo sapiens, UniProt P08069); test: IGF-1R phosphorylation Western blot after immunoprecipitation, HepG2 cells with IGF1; assay type: cell-based; conditions: in the presence of IGF1
T1 construct: host or cells: HepG2
Description: FIG. 11 depicts SIRB-B5 antagonism on IGF-1R. HepG2 cells were treated with SIRB-B5 in the presence of IGF1. IGF-1R was immunoprecipitated to be distinguished from IR on a Phospho-IR/IGF-1R Western blot.

[3] = target: T2, IRβ Tyr1150/1151 (Homo sapiens, UniProt P06213); test: Immunoblotting of IR auto-phosphorylation in CHO-IR cells; assay type: cell-based; conditions: 10 μM peptides in the presence of 50 nM insulin
T2 construct: expressed in transfected cells; host or cells: CHO-IR (CHO cells stably expressing IR, from the Morris White lab)
Description: To perform this type of direct assay, a CHO-IR cell line that stably expresses IR (provided by Morris White lab) was treated with SIRB peptides to detect auto-phosphorylation of IRβ Tyr1150/1151 (Cell signaling) by western blot.
CHO-IR cells were seeded in 24-well plates and grown in Ham's F-12, 10% FBS medium to >80% confluent (in ˜48 hours). The cells are starved in Ham's F-12 medium without FBS for two hours prior to experiment.
For agonistic studies, cells were incubated in fresh Ham's F-12 without FBS (negative control and baseline for normalization) or the same medium with 50 nM insulin (positive control and 100% activity for normalization). Experimental wells were incubated in the same medium containing various concentrations of peptide (typically 1 uM, 10 uM, and 100 uM). All cells were incubated at 37° C. for 15 min or 30 min.
For antagonistic studies, the experiment could be done with or without pre-treatment with peptides. In the case without, cells were incubated in fresh Ham's F-12 without FBS (negative control and baseline for normalization) or the same medium with 50 nM insulin (positive control and 100% activity for normalization).
Experimental wells were incubated in the same medium containing various concentrations of peptide (typically 1 uM, 10 uM, and 100 uM) AND 50 nM insulin. All cells were incubated at 37 C. for 15 min. […]

[4] = system: mIR-Fn1-Ex10; test: Affinity pull-down of IR construct by biotinylated peptide on streptavidin beads; conditions: 1% BSA in binding buffer, competition by insulin
From the text: (§1) FIGS. 8A-8C depict the affinity pull-down of IR by SIRB-B5. 1% BSA added to binding buffer. FIG. 8A depicts the pull-down assay: Biotinylated SIRB-B5 could be immobilized on streptavidincoated beads and pull down IR from expression medium. Precipitated protein could be visualized by Western blot of His5 tag. FIG. 8B depicts L1-CR-L2 pulled down by SIRB-B5. FIG. 8C depicts mIR-Fn1-Ex10 pulled down by SIRB-B5 and competition by insulin.

[5] = target: T3, L1-CR-L2 (Homo sapiens, UniProt P06213); test: as above; conditions: 1% BSA in binding buffer, Western blot of His5 tag
T3 construct: made in house; host or cells: HEK293 (stably transfected; protein used from expression medium)
From the text: as §1

[6] = system: phosphorylation of Akt1 at Ser473; test: Phospho-Akt1 (Ser473) sandwich ELISA in HepG2 cells, antagonism and agonism screening; assay type: cell-based, human
Description: We note that although S371 has a high affinity to IR, it can barely induce downstream effects such as lipogenesis in rat adipocytes, which may reconcile with the result of no increase in downstream Akt phosphorylation. The effect of the peptides on insulin signaling was determined using a sandwich ELISA assay kit (Cell Signaling) designed to measure phosphorylation of Akt Ser473, a downstream target in the insulin signaling pathway. For each compound, cells were treated both in the presence and absence of insulin to reveal either antagonism or agonism, respectively, of insulin signaling.
Preparation: insulin stock solution at 50 μM (0.3 mg/ml or 30 mg/100 ml). To make stock: dissolved 10 mg in 1 ml 0.01 N HCl, heat at 37° C. to dissolve, then added to 32 ml, PBS, sterile filtered and stored at −20 C. Working stock would stay in good quality for 1 month at 4° C. […]
For the phospho-Akt1 ELISA assay, clarified lysate was first quantified using the standard BCA method, and all samples were adjusted to have the same total protein concentration. […]
The following day, wells were drained and washed four times with 1× Wash Buffer. […] Chemiluminescence was read under RLU mode in the […] SpectraMax Plate Reader at […] within 1-10 minutes of addition of substrate.

[7] = system: rat adipocytes; conditions: cited from earlier work
[8] = target: IR (Homo sapiens, UniProt P06213); conditions: read-out: affinity to the IR (kD); cited from earlier work

T1 sequence (P08069 31-736 limits assumed): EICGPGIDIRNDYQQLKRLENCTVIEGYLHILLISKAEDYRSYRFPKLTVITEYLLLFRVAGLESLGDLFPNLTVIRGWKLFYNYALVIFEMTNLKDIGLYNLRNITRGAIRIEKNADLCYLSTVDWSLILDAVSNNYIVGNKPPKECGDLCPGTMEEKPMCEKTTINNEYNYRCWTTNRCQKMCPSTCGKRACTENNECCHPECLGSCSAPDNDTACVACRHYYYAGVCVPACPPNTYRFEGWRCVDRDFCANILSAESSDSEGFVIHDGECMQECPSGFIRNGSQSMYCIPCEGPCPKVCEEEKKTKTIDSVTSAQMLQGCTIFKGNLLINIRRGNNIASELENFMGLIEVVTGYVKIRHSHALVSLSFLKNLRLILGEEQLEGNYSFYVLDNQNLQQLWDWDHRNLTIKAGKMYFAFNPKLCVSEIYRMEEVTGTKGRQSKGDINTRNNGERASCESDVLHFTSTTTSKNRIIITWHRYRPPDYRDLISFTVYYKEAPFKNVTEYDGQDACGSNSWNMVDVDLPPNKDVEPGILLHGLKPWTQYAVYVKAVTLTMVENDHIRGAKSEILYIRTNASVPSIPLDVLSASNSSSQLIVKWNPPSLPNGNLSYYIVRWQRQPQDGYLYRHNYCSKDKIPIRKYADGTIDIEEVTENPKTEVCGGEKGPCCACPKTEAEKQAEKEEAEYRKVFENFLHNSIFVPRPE
T1 sequence (P08069 741-1367 partner limits assumed): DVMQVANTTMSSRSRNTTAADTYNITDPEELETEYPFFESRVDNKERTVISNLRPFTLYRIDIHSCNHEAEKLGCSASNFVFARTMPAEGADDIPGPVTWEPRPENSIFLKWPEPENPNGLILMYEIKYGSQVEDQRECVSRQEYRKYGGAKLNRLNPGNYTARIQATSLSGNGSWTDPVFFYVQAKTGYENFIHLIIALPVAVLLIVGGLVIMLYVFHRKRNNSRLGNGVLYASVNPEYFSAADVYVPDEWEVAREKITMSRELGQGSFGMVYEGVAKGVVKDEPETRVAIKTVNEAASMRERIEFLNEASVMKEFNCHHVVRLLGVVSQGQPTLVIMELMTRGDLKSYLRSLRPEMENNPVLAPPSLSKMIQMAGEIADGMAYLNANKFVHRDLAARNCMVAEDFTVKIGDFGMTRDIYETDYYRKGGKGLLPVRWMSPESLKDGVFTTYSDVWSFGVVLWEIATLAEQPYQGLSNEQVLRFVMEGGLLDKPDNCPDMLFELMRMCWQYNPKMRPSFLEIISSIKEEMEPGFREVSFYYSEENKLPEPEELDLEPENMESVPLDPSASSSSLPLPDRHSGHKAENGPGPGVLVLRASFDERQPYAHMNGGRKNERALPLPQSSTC

## CC(C)C[C@H](NC(=O)[C@H](CCC(N)=O)NC(=O)[C@H](CCCNC(=N)N)NC(=O)[C@]1(C)CCCC=CCCCCCC[C@@](C)(NC(=O)[C@H](CC(=O)O)NC(=O)[C@H](CC(C)C)NC(=O)[C@H](CO)NC(=O)CN)C(=O)N[C@@H](CO)C(=O)N[C@@H](Cc2ccccc2)C(=O)N[C@@H](Cc2ccc(O)cc2)C(=O)N[C@@H](CC(=O)O)C(=O)N[C@@H](Cc2c[nH]c3ccccc23)C(=O)N[C@@H](Cc2ccccc2)C(=O)N1)C(=O)NCC(N)=O [SIRB-B5] (H-GSLD[R8]SFYDWF[S5]RQLG-NH2; staple 5-12; C-terminus assumed)
[1]; CHO-IR cells, read-out: IC50, inhibition of insulin-induced phosphorylation of Akt
  IC50: 1800 nM
[1]; maximal dose of 100 μM peptide
  Akt phosphorylation, % of control: 16%
[2]
  antagonism on IGF-1R: antagonism
[3]
  effect on insulin-induced auto-phosphorylation of IR (Phospho-IR western blot): significant reduction
[4]
  pull-down of mIR-Fn1-Ex10: pulled down
[5]
  pull-down of L1-CR-L2: pulled down

## S371: previously reported insulin-mimetic site 1 peptide of 16 residues from phage display; lead for stapling (GSLDESFYDWFERQLG)
[6]; 10 μM peptide in the presence of 50 nM insulin
  reduction of the insulin-induced Akt-S473 phosphorylation signal: 20%
[6]; absence of insulin
  agonistic effect on Akt phosphorylation, peptide alone: no trace of any increase in phosphorylation
[7]
  induction of lipogenesis: barely induce
[8]
  Kd: 40 nM
